# Legend:
# [1] = system: p53, p21 and BAX in A2780 cells; assay: Immunoblotting analysis, p53 pathway; type: cell-based, human; settings: for p53 expression: vs untreated cells
# Method: Having established the intracellular targets of 2 and 4, the role of p53, a cell cycle and apoptosis regulator, in the cellular responses evoked was investigated. […] Therefore, p53 played a fundamental role in coordinating the cellular response to 2-induced DNA damage. […] (FIG. 13). […] To relate p53 to potency, cytotoxicity studies were conducted in the presence of p53 inhibitors pifithrin-α and pifithrin-μ. (both 10 μM). […] The IC50 values of compound 2 in the absence and presence of p53 inhibitor pifithrin-μ after 72 hours incubation was about 2 μM and about 30 μM, respectively.
# A2780 cells (5×10^5 cells) were incubated with the osmium complexes (concentrations, μM) for 72 h at 37° C. Cells were washed with PBS, scraped into SDS-PAGE loading buffer (64 mM Tris-HCl (pH6.8)/9.6% glycerol/2% SDS/5% β-mercaptoethanol/0.01% Bromophenol Blue), and incubated at 95° C. for 10 min. Whole cell lysates were resolved by 4-20% sodium dodecylsulphate polyacylamide gel electrophoresis (SDS-PAGE; 200 V for 25 min) followed by electro transfer to polyvinylidene difluoride membrane, PVDF (350 mA for 1 h). Membranes were blocked in 5% (w/v) non-fat milk in PBST (PBS/0.1% Tween 20) and incubated with the appropriate primary antibodies (Cell Signalling Technology and Santa Cruz). After incubation with horseradish peroxidase-conjugated secondary antibodies (Cell Signalling Technology), immune complexes were detected with the ECL detection reagent (BioRad) and analyzed using an Alpha Innotech ChemiImager™ 5500 fitted with a chemiluminescence filter.
# A2780 cells = assay: DNA flow cytometric cell cycle analysis; type: cell-based, human
# Method: After 24 hours untreated A2780 cells had the following distribution: G1: 73.4%, S: 21.7%, and G2/M: 5.0%. After 48 hours untreated A2780 cells had the following distribution: G1: 75.1%, S: 19.6%, and G2/M: 5.2%. After 72 hours untreated had the following distribution: G1: 73.6%, S: 21.0%, and G2/M: 5.4%. After 24 hours A2780 cells treated with 2 had the following distribution: G1: 61.0%, S: 27.9%, and G2/M: 11.1%. After 48 hours A2780 cells treated with 2: G1: 61.8%, S: 19.0%, and G2/M: 19.1%. After 72 hours A2780 cells treated with 2 had the following distribution: G1: 57.3%, S: 23.3%, and G2/M: 19.4%. This property may be related to upregulation of p53 and phosphorylation of CHK1. Complex 4 induced relatively small perturbations to the cell cycle; changes in phase populations remained <5% even after a 72-hours incubation. After 24 hours untreated A2780 cells had the following distribution: G1: 73.7%, S: 23.1%, and G2/M: 3.3%. After 48 hours untreated A2780 cells had the following distribution: G1: 73.4%, S: 21.7%, and G2/M: 4.9%. After 72 hours untreated A2780 cells had the following distribution: G1: 79.7%, S: 19.4%, and G2/M: 0.9%. After 24 hours A2780 cells treated with 4 had the following distribution: G1: 70.9%, S: 24.8%, and G2/M: 4.6%. After 48 hours A2780 cells treated with 4 had the following distribution: G1: 71.9%, S: 18.3%, and G2/M: 9.8%. After 72 hours A2780 cells treated with 4 had the following distribution: G1: 70.3%, S: 24.4%, and G2/M: 5.3%.
# In order to monitor the cell cycle, flow cytometry studies were carried out. A2780 cells were incubated with and without the test compounds for 24-72 h at 37° C. Studies on A549 cells under normal and starved (proliferating and non-proliferating) conditions were also carried out. Cells were harvested from adherent cultures by trypsinization. Following centrifugation at 1000 rpm for 5 min, cells were washed with PBS and then fixed with 70% ethanol in PBS. Fixed cells were collected by centrifugation at 2500 rpm for 3 min, washed with PBS and centrifuged as before. Cellular pellets were re-suspended in 50 μg/ml propidium iodide (Sigma) in PBS for nucleic acids staining and treated with 100 μg/ml RNaseA (Sigma). DNA content was measured on a FACSCalibur-HTS flow cytometer (BD Biosciences) using laser excitation at 488 nm and 20,000 events per sample were acquired. Cell cycle profiles were analysed using the ModFit software. For the apoptosis experiments, the Annexin V-FITC Early Apoptosis Detection Kit was used. The manufacture's protocol was followed to carry out this experiment. Briefly, untreated and treated cells (1×10^5) were suspended in 1× annexin binding buffer (96 μL) (10 mM HEPES, 140 mM NaCl, 2.5 mM CaCl2), pH 7.4), then 1 μL FITC annexin V and 12.5 μL PI (10 μg/mL) were added to each sample and incubated on ice for 15 min. After which more binding buffer (150 μL) was added while gently mixing. The samples were kept on ice prior to being read on the FACSCalibur-HTS flow cytometer (BD Biosciences) and 20,000 events per sample were acquired. Cell populations were analysed using the FlowJo software (Tree Star).
SMILES,p21 and BAX expression [1],p53 expression [1],cell cycle distribution G1 (A2780 cells; 24 hours) [%],cell cycle distribution G2/M (A2780 cells; 24 hours) [%],cell cycle distribution S (A2780 cells; 24 hours) [%],cell cycle distribution G1 (A2780 cells; 48 hours) [%],cell cycle distribution G2/M (A2780 cells; 48 hours) [%],cell cycle distribution S (A2780 cells; 48 hours) [%],increase in G2/M population (A2780 cells; 72 h incubation) [fold],cell cycle distribution G1 (A2780 cells; 72 hours) [%],cell cycle distribution G2/M (A2780 cells; 72 hours) [%],cell cycle distribution S (A2780 cells; 72 hours) [%],changes in phase populations (A2780 cells; up to 72-hours incubation) [%]
"[N]#[Os]1([Cl])([Cl])([Cl])[N]2C=CC=c3ccc4c(c32)[N]1C=CC=4 [Complex 2, OsN(1,10-phenanthroline)Cl3]",dose-dependent increase,higher p53 expression,61.0,11.1,27.9,61.8,19.1,19.0,~3,57.3,19.4,23.3,–
"[N]#[Os]1([Cl])([Cl])([Cl])[N]2C=CC(c3ccccc3)=c3ccc4c(c32)[N]1C=CC=4c1ccccc1 [Complex 4, OsN(4,7-diphenyl-1,10-phenanthroline)Cl3]",remained fairly constant,did not increase markedly,70.9,4.6,24.8,71.9,9.8,18.3,–,70.3,5.3,24.4,< 5

# Reference: patent publication US10662210B2, “Compositions and methods comprising osmium for the treatment of cancers” (Massachusetts Institute of Technology, priority 2014, dated 2020)
